Kd data for one compound are collected here from patent publication US20250121076A1, “POLYPEPTIDE DRUG CONJUGATE HAVING NOVEL STRUCTURE AND APPLICATION THEREOF” (MEDSHINE DISCOVERY INC., priority 2021, published 2025).

In this assay the target is T1, Human EphA2 (Homo sapiens, UniProt P29317).
T1 construct: purchased Sino Biological 13926-H08HD
As to the kind of experiment: Binding capacity test to EphA2 protein (SPR, Biacore 8K). The method, then:
To detect the affinity of the compound to be tested to the target protein EphA2 using the SPR method.
• Biacore 8K (GE Healthcare). • 96-well Plate (Cat #650101, greiner bio-one) • CM5 chip (Cat #BR-1005-30, GE Healthcare) • Amine Coupling Kit (Cat #BR-1000-50, GE Healthcare) EDC NHS 1 M ethanolamine. • 10 mM sodium acetate pH 4.5 (Cat #BR-1003-50, GE Healthcare) • DMSO (Cat #D4540, Sigma) • P20 (Cat #BR-1000-54, GE Healthcare). • PBS (Cat #BR-1006-72, GE Healthcare). • EphA2 (Cat #13926-H08HD, Sino Biological)
In this experiment, the amino coupling method was used. The target protein EphA2 was directly immobilized on the CM5 chip using Biacore 8K. The compound to be tested as an analyte was then diluted to a required concentration gradient with a buffer (10 mM PBS, pH 7.4, 137 mM NaCl, 2.7 mM KCl, 5% DMSO, and 0.05% P20) for multi-cycle kinetic detection, in which each cycle is formed by 180 seconds of sample injection and 180 seconds of dissociation, and then the next cycle was performed, to obtain kinetic analysis data on the affinity of the target protein EphA2 to the compound to be tested. The final data were subjected to Kinetics fitting analysis based on a 1:1 model using Biacore Insight Evaluation Software (V 2.0.15.12933).
1) Preparation of the buffer: 10 mM PBS, pH 7.4, 137 mM NaCl, 2.7 mM KCl, 5% DMSO, and 0.05% P20.
2) Activation of the CM5 chip: The CM5 chip was activated with 400 mM EDC and 100 mM NHS at a flow rate of 10 μL/min for 420 seconds.
3) Coupling of the target protein: The target protein was diluted to 10 μg/mL with 10 mM sodium acetate (pH 4.5) and coupled at a flow rate of 10 μL/min for 284 s. The 1 #, 2 #, and 3 #channels on the chip were used in the experiment, and the coupling results were 1639.9RU, 1747.8RU, and 1702.2RU, respectively.
4) Blocking of the CM5 chip: The CM5 chip was blocked with 1 M ethanolamine at a flow rate of 10 μL/min for 420 seconds.
5) Analyte concentration: The compound to be tested was diluted with the buffer. The compound to be tested was diluted from 100 nM to 0.78 nM in a 2-fold gradient.
6) Sample injection analysis: Each concentration of the working solution of the compound to be tested corresponded to one cycle, with a flow rate of 30 μL/min for binding for 180 seconds and dissociating for 180 seconds. The last cycle was a 5% DMSO solvent correction cycle. 7) All results were subjected to kinetics fitting analysis based on a 1:1 model.
The experimental data of five effective concentrations of the compounds of the present invention were selected for Kinetics fitting analysis based on a 1:1 model using Biacore Insight Evaluation Software (V 2.0.15.12933).
In general terms: Surface plasmon resonance follows binding to a sensor surface in real time, without labels.

Each structure is given as a SMILES string. Where a name gives a salt, the structure may show the parent alone. Starred links: 1 amine or outer side, 2 acyl side, 3 side chain; linkers in the order of their positions; H or OH if unused. Positions of bridges follow the written chain, without caps; N, C: chain ends. Non-standard residues stand in square brackets, D forms with d. Residues, ends and D or L forms follow the SMILES beside them. Chains are numbered I, II in the order given. *: point of attachment. TATA = O=C(CC[*:1])N1CN(C(=O)CC[*:2])CN(C(=O)CC[*:3])C1; Dolaproine = CO[C@@H]([C@@H]1CCCN1)[C@@H](C)C(=O)O; Dil = CC[C@H](C)[C@H](NC)[C@@H](CC(=O)O)OC; X2 = O=C(CCCC(=O)[*:2])NCCC(=O)[*:1]; PABC = O=C(OCc1ccc(N[*:1])cc1)[*:2]; X1 = C[C@@H](N*)[C@@H](O)c1ccccc1; Hyp = O=C(O)[C@@H]1C[C@@H](O)CN1; hArg = N=C(N)NCCCC[C@H](N)C(=O)O; Cit = NC(=O)NCCC[C@H](N)C(=O)O; Pen = CC(C)(S)[C@H](N)C(=O)O; NMeV = CN[C@H](C(=O)O)C(C)C; Sar = CNCC(=O)O

T1 sequence (P29317 24-534 limits assumed): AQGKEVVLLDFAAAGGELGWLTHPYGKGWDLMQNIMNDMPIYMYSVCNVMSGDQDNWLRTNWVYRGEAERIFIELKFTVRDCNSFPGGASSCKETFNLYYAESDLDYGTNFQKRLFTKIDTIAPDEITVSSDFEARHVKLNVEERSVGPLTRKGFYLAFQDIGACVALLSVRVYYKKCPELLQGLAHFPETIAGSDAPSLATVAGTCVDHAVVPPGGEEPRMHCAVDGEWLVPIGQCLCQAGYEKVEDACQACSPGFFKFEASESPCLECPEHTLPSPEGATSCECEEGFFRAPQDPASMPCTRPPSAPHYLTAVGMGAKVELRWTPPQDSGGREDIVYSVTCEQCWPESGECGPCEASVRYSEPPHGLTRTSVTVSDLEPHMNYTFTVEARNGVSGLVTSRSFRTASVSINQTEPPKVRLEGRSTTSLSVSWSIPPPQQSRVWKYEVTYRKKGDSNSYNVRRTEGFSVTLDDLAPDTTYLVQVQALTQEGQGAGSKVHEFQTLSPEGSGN

Usually Kd stands for a measure of binding affinity in units of concentration. In turn, `CC[C@H](C)[C@@H]([C@@H](CC(=O)N1CCC[C@H]1[C@H](OC)[C@@H](C)C(=O)N[C@H](C)[C@@H](O)c1ccccc1)OC)N(C)C(=O)[C@@H](NC(=O)[C@H](C(C)C)N(C)C(=O)OCc1ccc(NC(=O)[C@H](CCCNC(N)=O)NC(=O)[C@@H](NC(=O)CCCC(=O)NCCC(=O)N(C)CC(=O)N(C)CC(=O)N(C)CC(=O)N(C)CC(=O)N(C)CC(=O)N(C)CC(=O)N(C)CC(=O)N(C)CC(=O)N(C)CC(=O)N(C)CC(=O)N[C@H]2CCCCNC(=O)C[C@@H](C(=O)N[C@@H]3C(=O)N4C[C@H](O)C[C@H]4C(=O)N[C@@H](CC(C)C)C(=O)N[C@@H](C(C)C)C(=O)N[C@@H](CC(N)=O)C(=O)N4CCC[C@H]4C(=O)N[C@@H](CC(C)C)C(=O)N[C@H]4CSCCC(=O)N5CN(CN(C5)C(=O)CCSC3(C)C)C(=O)CCSC[C@@H](C(N)=O)NC(=O)[C@H](CCCCNC(=N)N)NC(=O)[C@H](Cc3c[nH]c5ccccc35)NC(=O)[C@@H](CC(=O)O)NC(=O)[C@@H]3CCCN3C(=O)[C@H](Cc3c[nH]cn3)NC(=O)[C@H](CC(C)C)NC4=O)NC(=O)[C@H](CCCCNC(=N)N)NC2=O)C(C)C)cc1)C(C)C` [Acetate salt of PDC_7] (I: [Sar][Sar][Sar][Sar][Sar][Sar][Sar][Sar][Sar][Sar]K[hArg]D[Pen][Hyp]LVNPLCLHP[dD]W[hArg]C-NH2 / II: V[Cit][PABC][NMeV]V[Dil][Dolaproine]-X1; lactam I:11-I:13; linker I:14-I:21-I:28 via TATA; linker I:N-II:N via X2) gave a Kd of 8.39 nM.
